From US20140377340A1, “HLA-DR BINDING PEPTIDES AND THEIR USES” (priority 2007, published 2014)

How the values were obtained:
[1] = molecular target: T1, purified HLA DRB1*0101 (Homo sapiens, UniProt P01903+P01911, A100R/D57E/F55L/F60I/F76Y/I96L/L162R/M171V/P40L/Q125E/R42F/V115G/Y59C); experiment: HLA-DR radioligand binding inhibition assay, DRB1*0101; conditions: IC50 nM purified HLA DRB1 *0101, purified HLA DRB1*0101
T1 construct: purified from EBV transformed homozygous cell lines or single MHC allele transfected 721.221, C1R, or fibroblast lines; made in house
Procedure, shortened: (§1)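 The probe, 1-10 nM radiolabeled peptide, was incubated with 1 μM to 1 nM HLA-DR for 2 days in the presence of protease inhibitors.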

[2] = molecular target: T2, purified HLA DRB1*1302 (Homo sapiens, UniProt P01903+P01911, A100E/A169T/K41T/L162R/M171V/P40S/Q125H/Q178H/Q39Y/Q99D/R42S/S66N/T262R/V115G/W38E/Y61H); experiment: HLA-DR radioligand binding inhibition assay, DRB1*1302
T2 construct: purified from EBV transformed homozygous cell lines or single MHC allele transfected 721.221, C1R, or fibroblast lines; made in house
Procedure, shortened: as §1

[3] = molecular target: T3, purified HLA DRB1*1101 (Homo sapiens, UniProt P01903+P01911, A100R/A169T/A87E/I96F/K41T/L162R/M171V/P40S/Q125H/Q178H/Q39Y/Q99D/R42S/S66Y/T262R/V115G/W38E); experiment: HLA-DR radioligand binding inhibition assay, DRB1*1101; conditions: IC50 nM purified HLA DRB1 *1101, purified HLA DRB1*1101
T3 construct: purified from EBV transformed homozygous cell lines or single MHC allele transfected 721.221, C1R, or fibroblast lines; made in house
T3 sequence (P01903 26-254, other chains not shown): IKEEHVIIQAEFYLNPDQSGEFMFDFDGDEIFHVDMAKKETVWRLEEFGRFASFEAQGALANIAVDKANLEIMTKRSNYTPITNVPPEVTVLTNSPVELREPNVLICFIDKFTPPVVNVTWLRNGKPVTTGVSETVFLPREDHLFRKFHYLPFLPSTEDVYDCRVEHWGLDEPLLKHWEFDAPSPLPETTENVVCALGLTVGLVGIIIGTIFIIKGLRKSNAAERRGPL
Experimental: (§2) Instead, wells of an opaque white 96-well Optiplate (Packard) are coated with 3 μg (100 μl@ 30 μg/ml) of HLA-specific antibody (Ab) that “capture” complexes of radiolabeled MHC and unlabeled peptide transferred from the molecular binding assay plate in 100 μl of 0.05% NP40/PBS. After a 3-hour incubation period, the supernatant is decanted and scintillation fluid (Microscint 20) added. Captured complexes are then measured on a microplate scintillation and luminescence counter (TopCount NXTTM; Packard).
(§3) HLA-DR purification. Fifteen distinct HLA-DR molecules were used in quantitative assays to measure the binding of peptides to solubilized HLA-DR molecules. […] Briefly, columns of inactivated Sepharose CL4B and Protein A Sepharose were used as pre-columns. HLA-DR molecules were captured by passage of lysates over LB3.1 monoclonal antibody (anti-HLA-DRA) columns. Antibody columns were washed with 10 mM Tris-HCL, pH8.0 with 1% (v/v) NP-40, followed by PBS containing 0.4% (w/v) n-octylglucoside.
(§4) Briefly, 1-10 nM of radiolabeled peptide was co-incubated for 2 days at either room temperature or 37° C. with 1 μM to 1 nM purified HLA-DR molecules in the presence of a cocktail of protease inhibitors. Assays were performed at various pH conditions, ranging from pH 4 to pH 7. […] After incubation, the percentage of HLA-DR-bound radioactivity is determined by capturing HLA-DR/peptide complexes on Optiplates (Packard Instruments, Meriden, Conn.) coated with the LB3.1 antibody and determining bound counts per minute using the TopCount microscintillation counter (Packard Instruments).

[4] = molecular target: T4, purified HLA DRB4*0101 (Homo sapiens, UniProt P01903+P13762, G164S); experiment: HLA-DR radioligand binding inhibition assay, DRB4*0101; conditions: IC50 nM purified HLA DRB4 *0101, purified HLA DRB4*0101
T4 construct: purified from EBV transformed homozygous cell lines or single MHC allele transfected 721.221, C1R, or fibroblast lines; made in house
Experimental: as §2, §3, §4

[5] = molecular target: T5, purified HLA DRB1*0405 (Homo sapiens, UniProt P01903+P01911, A100R/A169T/D86S/F76Y/I96L/K127E/L162R/M171V/N62H/P40V/Q125Y/R42H/S133A/S149N/S66Y/V115G/V209L/W38E); experiment: HLA-DR radioligand binding inhibition assay, DRB1*0405; conditions: IC50 nM purified HLA DRB1 *0405, purified HLA DRB1*0405
T5 construct: purified from EBV transformed homozygous cell lines or single MHC allele transfected 721.221, C1R, or fibroblast lines; made in house
Experimental: as §2, §3, §4

[6] = system: 15 different HLA-DR molecules; experiment: HLA-DR binding assays, panel of 15 different HLA-DR molecules (breadth of binding); conditions: number of the 15 HLA-DR molecules bound (binders: 1000 nM or better)
[7] = molecular target: T6, purified HLA DRB1*0401 (Homo sapiens, UniProt P01903+P01911, A100K/A169T/F76Y/I96L/K127E/L162R/M171V/N62H/P40V/Q125Y/R42H/S133A/S149N/S66Y/V115G/V209L/W38E); experiment: HLA-DR radioligand binding inhibition assay, DRB1*0401; conditions: IC50 nM purified HLA DRB1 *0401, purified HLA DRB1*0401
T6 construct: purified from EBV transformed homozygous cell lines or single MHC allele transfected 721.221, C1R, or fibroblast lines; made in house
Procedure, shortened: as §1

[8] = molecular target: T7, purified HLA DRB1*0701 (Homo sapiens, UniProt P01903+P01911, A100R/A102G/A103Q/D57E/D86V/E43K/F76Y/K127E/L162R/M171V/P40G/Q125H/Q99D/R33Q/R42Y/R54Q/S133A/S66F/T210M/V115G/Y107V/Y59L/Y89S); experiment: HLA-DR radioligand binding inhibition assay, DRB1*0701; conditions: IC50 nM purified HLA DRB1 *0701, purified HLA DRB1*0701
T7 construct: purified from EBV transformed homozygous cell lines or single MHC allele transfected 721.221, C1R, or fibroblast lines; made in house
Procedure, shortened: as §1

[9] = molecular target: T8, purified HLA DRB5*0101 (Homo sapiens, UniProt P01903+Q30154); experiment: HLA-DR radioligand binding inhibition assay, DRB5*0101; conditions: IC50 nM purified HLA DRB5 *0101, purified HLA DRB5*0101
T8 construct: purified from EBV transformed homozygous cell lines or single MHC allele transfected 721.221, C1R, or fibroblast lines; made in house
Experimental: as §2, §3, §4

| Structure (SMILES) | IC50 [2] | IC50 [3] | IC50 [4] | Total XRN [6] | further results |
| --- | --- | --- | --- | --- | --- |
| CSCC[C@H](NC(=O)[C@@H](NC(=O)[C@H](Cc1ccc(O)cc1)NC(=O)[C@H](C)N)C(C)C)C(=O)N[C@@H](C)C(=O)NCC(=O)N[C@H](C(=O)NCC(=O)N[C@@H](CO)C(=O)N1CCC[C@H]1C(=O)N[C@@H](Cc1ccc(O)cc1)C(=O)N[C@H](C(=O)N[C@@H](CO)C(=O)N[C@@H](CCCNC(=N)N)C(=O)N[C@@H](CC(C)C)C(=O)O)C(C)C)C(C)C [Peptide 9019.0077] | 402 nM | 1800 nM | 5060 nM | – | IC50 [1]: 92 nM; IC50 [5]: 596 nM |
| CC[C@H](C)[C@H](NC(=O)[C@@H](NC(=O)[C@H](Cc1c[nH]cn1)NC(=O)[C@H](CC(C)C)NC(=O)[C@@H](NC(=O)[C@H](CC(C)C)NC(=O)[C@@H](N)Cc1ccccc1)[C@@H](C)O)C(C)C)C(=O)N[C@@H](CCCCN)C(=O)N[C@@H](CO)C(=O)N[C@@H](CC(=O)O)C(=O)N[C@@H](CC(C)C)C(=O)N[C@H](C(=O)N[C@@H](CC(N)=O)C(=O)N[C@@H](CCC(=O)O)C(=O)N[C@@H](CCC(=O)O)C(=O)O)C(C)C [Peptide 9019.0114] | – | – | – | 11 | – |
| CC[C@H](C)[C@H](NC(=O)[C@@H](NC(=O)[C@H](CO)NC(=O)[C@H](CC(=O)O)NC(=O)[C@@H](N)CO)C(C)C)C(=O)N[C@@H](CC(C)C)C(=O)N[C@@H](CC(N)=O)C(=O)N[C@H](C(=O)N[C@@H](CC(C)C)C(=O)N[C@@H](Cc1ccc(O)cc1)C(=O)NCC(=O)N1CCC[C@H]1C(=O)N[C@@H](CC(=O)O)C(=O)N[C@@H](C)C(=O)N1CCC[C@H]1C(=O)O)C(C)C [Peptide 9019.0119] | 83 nM | 9210 nM | 612 nM | – | IC50 [7]: 255 nM; IC50 [8]: 5240 nM; IC50 [9]: > 20000 nM |
| CC[C@H](C)[C@H](NC(=O)[C@H](CC(N)=O)NC(=O)[C@@H]1CCCN1C(=O)[C@@H](NC(=O)[C@H](Cc1ccccc1)NC(=O)[C@H](CC(C)C)NC(=O)[C@H](CCC(=O)O)NC(=O)[C@@H](N)CCC(N)=O)[C@@H](C)CC)C(=O)N[C@H](C(=O)N[C@H](C(=O)N[C@@H](CC(N)=O)C(=O)N[C@@H](CC(N)=O)C(=O)N[C@@H](CO)C(=O)NCC(=O)N[C@@H](CO)C(=O)O)C(C)C)[C@@H](C)O [Peptide 9019.0123] | – | – | – | 9 | – |
| CC(C)C[C@H](NC(=O)[C@@H](N)Cc1ccc(O)cc1)C(=O)N[C@@H](Cc1c[nH]c2ccccc12)C(=O)N[C@@H](Cc1c[nH]c2ccccc12)C(=O)N[C@H](C(=O)N[C@@H](CC(N)=O)C(=O)N[C@@H](CC(N)=O)C(=O)N[C@@H](CCC(N)=O)C(=O)N[C@@H](CO)C(=O)N[C@@H](CC(C)C)C(=O)N1CCC[C@H]1C(=O)N[C@H](C(=O)N[C@@H](CO)C(=O)N1CCC[C@H]1C(=O)N[C@@H](CCCNC(=N)N)C(=O)O)C(C)C)C(C)C [Peptide 9019.0126] | – | – | – | 10 | – |
| CC(C)C[C@H](NC(=O)[C@H](CO)NC(=O)[C@H](CC(C)C)NC(=O)[C@H](CC(N)=O)NC(=O)[C@@H](NC(=O)CNC(=O)[C@@H]1CCCN1C(=O)[C@H](CCCNC(=N)N)NC(=O)[C@H](Cc1ccc(O)cc1)NC(=O)[C@H](Cc1ccc(O)cc1)NC(=O)[C@@H](NC(=O)[C@H](Cc1ccc(O)cc1)NC(=O)[C@@H](N)CO)[C@@H](C)O)C(C)C)C(=O)N[C@@H](CO)C(=O)N[C@@H](CS)C(=O)O [Peptide 9019.0128] | – | – | – | 10 | – |
